Data taken from patent US4009181A, “Cyclopenta[b]indole-2-carboxylic acids and derivatives thereof” (Hoffmann-La Roche Inc., priority 1974, dated 1977).

What was measured:
[1] = analgesic activity: hot plate reaction time; type: in vivo, male mice; conditions: mice; dose ranging from 38 mg. to about 220 mg.
Protocol: The method determines the reaction time of mice dropped onto a hot plate maintained at 55±0.5° C. Six groups of male mice (5 mice/group) weighing between 20-30 grams are utilized. The initial reaction time of these mice is determined once, and the reaction time of each group is then averaged. The mice are then administered the vehicle and/or the compound to be tested by the oral, intraperitoneal or subcutaneous route. The average reaction time of each group is determined again at 30, 60 and 90 minutes after compound administration and is compared to controls. Reaction time is recorded as percent changes from control. All groups are averaged before and after treatment. A combined reaction time average (recorded as percent change of reaction time threshhold from controls) for all three periods is plotted against dose on graph paper, and a curve is drawn. The ED 50 is read from this curve.

[2] = antipyretic activity: Brewer's yeast foot injection, foot and rectal temperatures; type: in vivo, male rats; conditions: rats; 200 mg/kg.
Protocol: Control animals are given 1 cc/100 g. body weight of the vehicle. The test drug animals are given 200 mg/kg. of the drug in a concentration of 2 percent. Soluble and insoluble compounds are administered orally in aqueous suspended vehicle. One hour after administration of drug, these rats are injected with 0.1 ml. of a 2 percent suspension of Brewer's yeast beneath the plantar surface of the foot. Two hours after drug injections and 1 hour after the irritant, the temperatures of the inflammed foot, the normal foot and the rectum are recorded with the help of a thermocouple. Results are reported as degrees change from controls. The temperatures are averaged for the inflamed foot, the normal foot and the rectum. The averages for the treated groups are compared with the control averages and the results noted as degrees change from control.

[3] = LD50 p.o. in mice (acute toxicity); type: in vivo

O=C(O)C1CCc2c([nH]c3ccc(Cl)cc23)C1 (stereo not drawn) [6-chloro-1,2,3,4-tetrahydrocarbazole-2-carboxylic acid]
analgesic activity [1]: analgesic activity is observed | antipyretic activity [2]: antipyretic activity is observed | LD50 [3]: 1120 mg
